Where two headings read alike, the source gives them in different places. Numbered stars: 1 amine (or outer) side, 2 acyl side, 3 side chain; on linkers, the order of the positions; unused ones are H or OH. Bridge positions count the residues as written; N and C are the ends. Square brackets hold non-standard residues; d marks the D form. Peptide text beside a SMILES is read from it. * marks the point of attachment. Orn(4R-OH,5R-OCH2CH2NMe3+) = C[N+](C)(C)CCO[C@@H](N[*:3])[C@H](O)C[C@H](N[*:1])C(=O)[*:2]; pTerphenylCO(4''-OnC5H11) = CCCCCOc1ccc(-c2ccc(-c3ccc(C(=O)*)cc3)cc2)cc1; hTyr(3S-OH,4S-OH) = N[C@H](C(=O)O)[C@H](O)[C@@H](O)c1ccc(O)cc1; Pro(3S-OH,4S-Me) = C[C@H]1CN[C@H](C(=O)O)[C@H]1O; Hyp = O=C(O)[C@@H]1C[C@@H](O)CN1
Key:
[1] = with normal serum albumin, cited from earlier work
Text: Consistent with the previous population PK model, which had relationships between body weight and all PK parameters ([12]), body size in the form of BSA was predictive of the variability in Vc, Vp1, and Vp2. However, body size was not a significant predictor of the variability in rezafungin CL in this population. One possible explanation for the lack of a body size relationship for CL is the fact that sex is predictive of the IIV in CL but none of the vo ...

[2] = Post hoc rezafungin exposure and PK parameter estimates for patients of the STRIVE trial; format: in vivo, human; details: n = 68, plasma; for AUC0–168 / Cmax / Cmin: after first dose and prior to the second dose; for AUC0–168: from individual post hoc parameters; for Cmax: highest predicted concentration; for Cmin: lowest predicted concentration; for clearance / Vd: human, iv; for clearance: individual post hoc estimates from final model; for Vd: volume of distribution at steady state, individual post hoc estimates, read-out: Vss
Experimental: (§1) The phase 2 study (NCT02734862, also known as the STRIVE trial) was a multicenter, randomized, double-blind study designed to assess the safety and efficacy of rezafungin, compared to that of caspofungin followed by optional oral fluconazole step-down, in the treatment of patients with candidemia and/or invasive candidiasis. Treatment groups included two dose regimens of rezafungin IV once weekly (400 mg IV or 400 mg IV on week 1 followed by 200 mg on subsequent weeks) or caspofungin IV once daily. Additional doses after day 14 were allowed based on criteria defined in the study protocol. Blood samples for determination of rezafungin plasma concentrations were obtained within 10 min before the end of infusion and either at 4 and 8 h on day 1 (as specified in the original protocol) or from 15 min to 1 h after the end of infusion and 2 to 12 h after the end of infusion on day 1 (as modified by protocol amendment, designed to better inform the population PK model). Additional samples were obtained with random clinical blood draws on day 2 and day 4, as well as prior to the dose on day 8 and day 15 (or day 14 if no day 15 dose was administered).
(§2) All blood samples were assayed for plasma rezafungin concentration using a liquid chromatography coupled to tandem mass spectrometry (LC/MS/MS) method that has been described previously ([11], [12]). In brief, the calibration range for the assay was 10.0 ng/ml to 10,000 ng/ml, and interassay accuracy and precision were excellent (accuracy ranged from 0.3 to 4.3%, and precision ranged from 2.7 to 5.0%). The same assay was used for all four studies.
Patient-specific estimates of rezafungin exposure (AUC from zero to tau [AUC0−τ], maximum concentration of drug [Cmax], and minimum concentration of drug [Cmin]) were derived using individual post hoc PK parameter estimates obtained from the final model. The PK parameters and the mrgsolve package in R ([22]) were then used to simulate predicted plasma rezafungin concentration-time data for each subject for the duration of time between the first and second doses. Cmax and Cmin were defined as the highest and lowest predicted concentrations over that first dosing interval, respectively, while AUC0-τ was calculated via numerical integration of the concentration-time profile. Summary statistics for the rezafungin exposures and key PK parameters (i.e., CL and volume of distribution at steady state [Vss]) were calculated for the patients from the STRIVE trial.

[3] = Population PK model of rezafungin in plasma, pooled phase 1 and phase 2 data; format: in vivo, human
Text: Data were pooled from three phase 1 studies (NCT02516904, NCT02551549, and CD101.IV.1.06) and one phase 2 study (NCT02734862). The protocols and informed consent were reviewed and approved by an appropriate institutional review board before subject enrollment. The studies were designed and monitored in compliance with the ethical principles of good clinical practice and in accordance with the Declaration of Helsinki.
The first phase 1 study (NCT2516904) was a single ascending dose (SAD) study in which subjects received a single rezafungin dose of 50, 100, 200, or 400 mg or matching placebo administered as a 60-min IV infusion. A total of 32 subjects were enrolled and randomized evenly to each of the four dosing cohorts (6 active and 2 placebo in each cohort). Blood samples for determination of rezafungin plasma concentrations were obtained prior to the dose and at 0.25, 0.5, 1, 1.5, 2, 4, 6, 8, 12, 24, 48, and 120 h after the start of infusion and on days 7, 14 (±1 day), and 21 (±1 day). The second phase 1 study (NCT02551549) was a multiple ascending dose (MAD) study. A total of 24 subjects were enrolled and randomized evenly to one of three cohorts. In cohorts 1 and 2, subjects received 100 or 200 mg of rezafungin (or matching placebo in a 3:1 ratio in each cohort), respectively, as 60-min IV infusions on days 1 and 8. In cohort 3, subjects received 400 mg (or matching placebo in a 3:1 ratio), respectively, as 60-min IV infusions on days 1, 8, and 15. Blood samples were collected predose and at 0.5, 1, 1.5, 2, 4, 6, 8, 12, 24, 48, and 120 h after the start of each infusion and on days 7, 14 (±1 day), 21 (±1 day), and 35 (±1 day, cohort 3 only). The third phase 1 study (CD101.IV.1.06) was designed to assess the impact of single, ascending doses of rezafungin on QTcF interval in healthy subjects. Subjects were randomized to receive either rezafungin (600 or 1,400 mg IV at a rate of 400 mg/h, n = 12 per dose group), moxifloxacin (400 mg IV, n = 24), or placebo. Only data from subjects randomized to rezafungin were included in the population PK analysis data set. Blood samples for determination of rezafungin plasma concentrations were obtained prior to the dose and at 1.5, 2.5, 3.5, 5, 6, 8, 12, 24, 48, 96, and 168 h after the start of the infusion.
as §1
as §2, with “studies. […]” for “studies.”

[4] = STRIVE patients, median (range)
[5] = final population PK model, covariate effect: (BSA/1.83)^power

Compound: CCCCCOc1ccc(-c2ccc(-c3ccc(C(=O)N[C@H]4C[C@@H](O)[C@@H](OCC[N+](C)(C)C)NC(=O)[C@@H]5[C@@H](O)[C@@H](C)CN5C(=O)[C@H]([C@@H](C)O)NC(=O)[C@H]([C@H](O)[C@@H](O)c5ccc(O)cc5)NC(=O)[C@@H]5C[C@@H](O)CN5C(=O)[C@H]([C@@H](C)O)NC4=O)cc3)cc2)cc1 [rezafungin] ({pTerphenylCO(4''-OnC5H11)}-[Orn(4R-OH,5R-OCH2CH2NMe3+)]T[Hyp][hTyr(3S-OH,4S-OH)]T[Pro(3S-OH,4S-Me)]; lactam 1-C)
- protein binding ([1]; humans): 97.4%
- protein binding ([1]; rats): 99.2%
- AUC0–168 [2, 4]: 673 (372–1,210) mg·h/liter
- Cmax ([2]; STRIVE patients, mean (SD), SD): 16.4 (4.38) mg/liter
- Cmax [2, 4]: 16.4 (7.10–26.0) mg/liter
- Cmin ([2]; STRIVE patients, mean (SD), SD): 2.07 (0.659) mg/liter
- Cmin [2, 4]: 1.90 (1.04–3.83) mg/liter
- clearance ([2]; STRIVE patients, mean (SD), SD): 6.08 mL/min
- clearance [2, 4]: 5.75 mL/min
- Vd ([2]; STRIVE patients, mean (SD), SD): 61 L
- Vd [2, 4]: 52.7 L
- AUC0–168 ([2]; patients with candidemia and/or invasive candidiasis, STRIVE trial, 400 mg IV week 1, mean (SD), SD): 709 (184) mg·h/liter
- Vc, proportional change in infected patients ([3]; final population PK model, covariate effect of infection status on Vc): 0.478
- Vp2, proportional change in infected patients ([3]; final population PK model, covariate effect of infection status on Vp2): 1.69
- Vp1-BSA power [3, 5]: 1.14
- Vp2-BSA power [3, 5]: 2.47
- Vp1-albumin power ([3]; final population PK model, covariate effect: (albumin/4.2)^power): −0.829
- Vc-BSA slope ([3]; final population PK model, covariate effect: Vc + slope x (BSA - 1.83)): 7.54
- CLd1, population mean final estimate ([3]; final population PK model, distributional clearance to peripheral compartment 1): 18.2 L/h
- CLd2, population mean final estimate ([3]; final population PK model, distributional clearance, peripheral compartment 2): 0.541 L/h
- CLd3, population mean final estimate ([3]; final population PK model, distributional clearance, peripheral compartment 3): 0.0743 L/h
- Vp1, population mean final estimate ([3]; final population PK model, volume of distribution for peripheral compartment 1, albumin 4.2, BSA 1.83): 14.6 L
- Vp2, population mean final estimate ([3]; final population PK model, volume of distribution for peripheral compartment 2, BSA 1.83, not infected): 6.69 L
- Vc, population mean final estimate ([3]; final population PK model, volume of distribution for the central compartment, BSA 1.83, not infected): 11.1 L
- Vp3, population mean final estimate ([3]; final population PK model, volume of peripheral compartment 3): 13.6 L
- clearance ([3]; human, final linear four-compartment population PK model, zero-order IV input, pooled healthy volunteers (phase 1) and infected patients (phase 2), 135 subjects, 50 to 1,400 mg IV, plasma LC/MS/MS, NONMEM FOCE-I, albumin 4.2, read-out: CL, population mean final estimate (converted)): 4.23 mL/min

From article PMC8522775, “Population Pharmacokinetics of Rezafungin in Patients with Fungal Infections” (Antimicrobial Agents and Chemotherapy, 2021)
